The source made the active and inactive calls. The calls are words filed in the database; no cut-off is given here.
Legend:
HT-29 [1] = assay: Antiproliferative activity against human HT-29 cells assessed as reduction in cell growth incubated for 48 hrs by MTT assay; assay type: functional, cell-based; conditions: HT-29, 48 h
A549 = assay: Antiproliferative activity against human A549 cells assessed as reduction in cell growth incubated for 48 hrs by MTT assay; assay type: functional, cell-based; conditions: A549, 48 h
[2] = target: Vascular endothelial growth factor receptor 2 (Homo sapiens) (UniProt P35968); assay: Inhibition of VEGFR2 in human HT-29 cells assessed as reduction in VEGFR2 phosphorylation incubated for 48 hrs by Western blot analysis; assay type: cell-based; conditions: dose 1-10 µM
Sequence of Vascular endothelial growth factor receptor 2 (Homo sapiens) (P35968 whole entry): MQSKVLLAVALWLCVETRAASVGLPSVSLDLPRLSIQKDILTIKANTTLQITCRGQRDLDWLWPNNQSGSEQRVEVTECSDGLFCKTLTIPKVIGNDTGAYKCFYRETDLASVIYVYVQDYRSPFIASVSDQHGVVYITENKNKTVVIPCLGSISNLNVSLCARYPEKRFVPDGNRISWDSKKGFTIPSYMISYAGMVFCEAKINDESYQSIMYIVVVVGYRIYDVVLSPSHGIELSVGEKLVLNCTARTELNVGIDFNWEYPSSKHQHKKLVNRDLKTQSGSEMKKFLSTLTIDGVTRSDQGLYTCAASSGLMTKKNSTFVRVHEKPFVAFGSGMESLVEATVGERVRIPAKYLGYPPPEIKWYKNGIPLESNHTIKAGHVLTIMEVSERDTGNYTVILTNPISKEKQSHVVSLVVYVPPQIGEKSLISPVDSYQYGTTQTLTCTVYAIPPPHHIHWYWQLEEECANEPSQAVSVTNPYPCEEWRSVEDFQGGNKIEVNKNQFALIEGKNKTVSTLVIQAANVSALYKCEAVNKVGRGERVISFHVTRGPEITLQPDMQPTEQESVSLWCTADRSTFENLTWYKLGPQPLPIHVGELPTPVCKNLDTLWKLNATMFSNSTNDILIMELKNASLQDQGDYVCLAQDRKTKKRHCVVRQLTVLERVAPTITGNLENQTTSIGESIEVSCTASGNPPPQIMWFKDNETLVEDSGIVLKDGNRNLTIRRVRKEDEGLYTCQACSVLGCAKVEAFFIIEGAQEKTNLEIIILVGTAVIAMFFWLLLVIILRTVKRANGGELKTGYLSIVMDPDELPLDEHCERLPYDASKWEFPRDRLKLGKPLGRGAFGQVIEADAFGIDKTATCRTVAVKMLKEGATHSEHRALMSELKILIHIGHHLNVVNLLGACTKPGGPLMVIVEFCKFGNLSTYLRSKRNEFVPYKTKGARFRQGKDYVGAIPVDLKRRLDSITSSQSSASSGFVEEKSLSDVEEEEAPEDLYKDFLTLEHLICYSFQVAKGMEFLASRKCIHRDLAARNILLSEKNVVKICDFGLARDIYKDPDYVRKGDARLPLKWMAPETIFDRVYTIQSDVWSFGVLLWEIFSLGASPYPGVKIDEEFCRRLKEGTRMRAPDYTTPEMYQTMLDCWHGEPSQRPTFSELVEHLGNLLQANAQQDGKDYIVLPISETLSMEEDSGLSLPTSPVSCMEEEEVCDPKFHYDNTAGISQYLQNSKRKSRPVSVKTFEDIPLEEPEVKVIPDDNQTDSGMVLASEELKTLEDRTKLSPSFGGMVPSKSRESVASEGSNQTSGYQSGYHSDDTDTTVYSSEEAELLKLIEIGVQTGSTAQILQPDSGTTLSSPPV

[3] = target: Vascular endothelial growth factor receptor 2 (Homo sapiens) (UniProt P35968); assay: Inhibition of VEGFR2 in human HT-29 cells assessed as reduction in c-Raf expression incubated for 48 hrs by Western blot analysis; assay type: cell-based; conditions: dose 1-10 µM
[4] = target: Vascular endothelial growth factor receptor 2 (Homo sapiens) (UniProt P35968); assay: Inhibition of VEGFR2 in human HT-29 cells assessed as reduction in ERK1/2 expression incubated for 48 hrs by Western blot analysis; assay type: cell-based; conditions: dose 1-10 µM
[5] = target: Vascular endothelial growth factor receptor 2 (Homo sapiens) (UniProt P35968); assay: Inhibition of VEGFR2 in human HT-29 cells assessed as reduction in MEK expression incubated for 48 hrs by Western blot analysis; assay type: cell-based; conditions: dose 1-10 µM
[6] = target: Vascular endothelial growth factor receptor 2 (Homo sapiens) (UniProt P35968); assay: Inhibition of VEGFR2 in human HT-29 cells assessed as reduction in ERK1/2 phosphorylation incubated for 48 hrs by Western blot analysis; assay type: cell-based; conditions: dose 1-10 µM
HT-29 [7] = assay: Induction of apoptosis in human HT-29 cells assessed as early apoptotic cells incubated for 48 hrs by annexin V-FITC and PI staining based flow cytometry analysis; assay type: functional, cell-based; conditions: dose 1-10 µM
HT-29 [8] = assay: Induction of apoptosis in human HT-29 cells assessed as late apoptotic cells incubated for 48 hrs by annexin V-FITC and PI staining based flow cytometry analysis; assay type: functional, cell-based; conditions: dose 1-10 µM
HT-29 [9] = assay: Induction of apoptosis in human HT-29 cells assessed as viable cells at 1 uM incubated for 48 hrs by annexin V-FITC and PI staining based flow cytometry analysis (reference value: 88.2 %); assay type: functional; conditions: read-out: Activity
HT-29 [10] = assay: Induction of apoptosis in human HT-29 cells assessed as early apoptotic cells at 1 uM incubated for 48 hrs by annexin V-FITC and PI staining based flow cytometry analysis (reference value: 1.01 %); assay type: functional
HT-29 [11] = assay: Induction of apoptosis in human HT-29 cells assessed as late apoptotic cells at 1 uM incubated for 48 hrs by annexin V-FITC and PI staining based flow cytometry analysis (reference value: 1.08 %); assay type: functional
HT-29 [12] = assay: Induction of apoptosis in human HT-29 cells assessed as necrotic cells at 1 uM incubated for 48 hrs by annexin V-FITC and PI staining based flow cytometry analysis (reference value: 9.68 %); assay type: functional
HT-29 [13] = assay: Induction of apoptosis in human HT-29 cells assessed as viable cells at 5 uM incubated for 48 hrs by annexin V-FITC and PI staining based flow cytometry analysis (reference value: 88.2 %); assay type: functional; conditions: read-out: Activity
HT-29 [14] = assay: Induction of apoptosis in human HT-29 cells assessed as early apoptotic cells at 5 uM incubated for 48 hrs by annexin V-FITC and PI staining based flow cytometry analysis (reference value: 1.01 %); assay type: functional
HT-29 [15] = assay: Induction of apoptosis in human HT-29 cells assessed as late apoptotic cells at 5 uM incubated for 48 hrs by annexin V-FITC and PI staining based flow cytometry analysis (reference value: 1.08 %); assay type: functional
HT-29 [16] = assay: Induction of apoptosis in human HT-29 cells assessed as necrotic cells at 5 uM incubated for 48 hrs by annexin V-FITC and PI staining based flow cytometry analysis (reference value: 9.68 %); assay type: functional
HT-29 [17] = assay: Induction of apoptosis in human HT-29 cells assessed as viable cells at 10 uM incubated for 48 hrs by annexin V-FITC and PI staining based flow cytometry analysis (reference value: 88.2 %); assay type: functional; conditions: read-out: Activity
HT-29 [18] = assay: Induction of apoptosis in human HT-29 cells assessed as early apoptotic cells at 10 uM incubated for 48 hrs by annexin V-FITC and PI staining based flow cytometry analysis (reference value: 1.01 %); assay type: functional
HT-29 [19] = assay: Induction of apoptosis in human HT-29 cells assessed as late apoptotic cells at 10 uM incubated for 48 hrs by annexin V-FITC and PI staining based flow cytometry analysis (reference value: 1.08 %); assay type: functional
HT-29 [20] = assay: Induction of apoptosis in human HT-29 cells assessed as necrotic cells at 10 uM incubated for 48 hrs by annexin V-FITC and PI staining based flow cytometry analysis (reference value: 9.68 %); assay type: functional
HT-29 [21] = assay: Induction of apoptosis in human HT-29 cells assessed as increase in caspase3 expression incubated for 48 hrs by Western blot analysis; assay type: functional, cell-based; conditions: dose 1-10 µM
HT-29 [22] = assay: Induction of apoptosis in human HT-29 cells assessed as upregulation of Bax expression at 1 to 10 uM incubated for 48 hrs by Western blot analysis; assay type: functional, cell-based; conditions: dose 1-10 µM
HT-29 [23] = assay: Induction of apoptosis in human HT-29 cells assessed as downregulation of Bcl2 expression at 1 to 10 uM incubated for 48 hrs by Western blot analysis; assay type: functional, cell-based; conditions: dose 1-10 µM
HT-29 [24] = assay: Induction of apoptosis in human HT-29 cells assessed as increase in ratio of Bax/Bcl2 at 1 to 10 uM incubated for 48 hrs by Western blot analysis; assay type: functional, cell-based; conditions: dose 1-10 µM
HT-29 [25] = assay: Induction of cell cycle arrest in human HT-29 cells assessed as G1 phase accumulation at 1 uM incubated for 48 hrs by PI staining based flow cytometry analysis (reference value: 56.39 %); assay type: functional
HT-29 [26] = assay: Induction of cell cycle arrest in human HT-29 cells assessed as S phase accumulation at 1 uM incubated for 48 hrs by PI staining based flow cytometry analysis (reference value: 36.98 %); assay type: functional
HT-29 [27] = assay: Induction of cell cycle arrest in human HT-29 cells assessed as G2 phase accumulation at 1 uM incubated for 48 hrs by PI staining based flow cytometry analysis (reference value: 11.7 %); assay type: functional
HT-29 [28] = assay: Induction of cell cycle arrest in human HT-29 cells assessed as subG1 phase accumulation at 1 uM incubated for 48 hrs by PI staining based flow cytometry analysis (reference value: 0.06 %); assay type: functional
HT-29 [29] = assay: Induction of cell cycle arrest in human HT-29 cells assessed as G1 phase accumulation at 5 uM incubated for 48 hrs by PI staining based flow cytometry analysis (reference value: 56.39 %); assay type: functional
HT-29 [30] = assay: Induction of cell cycle arrest in human HT-29 cells assessed as S phase accumulation at 5 uM incubated for 48 hrs by PI staining based flow cytometry analysis (reference value: 36.98 %); assay type: functional
HT-29 [31] = assay: Induction of cell cycle arrest in human HT-29 cells assessed as G2 phase accumulation at 5 uM incubated for 48 hrs by PI staining based flow cytometry analysis (reference value: 11.7 %); assay type: functional
HT-29 [32] = assay: Induction of cell cycle arrest in human HT-29 cells assessed as subG1 phase accumulation at 5 uM incubated for 48 hrs by PI staining based flow cytometry analysis (reference value: 0.06 %); assay type: functional
HT-29 [33] = assay: Induction of cell cycle arrest in human HT-29 cells assessed as G1 phase accumulation at 10 uM incubated for 48 hrs by PI staining based flow cytometry analysis (reference value: 56.39 %); assay type: functional
HT-29 [34] = assay: Induction of cell cycle arrest in human HT-29 cells assessed as S phase accumulation at 10 uM incubated for 48 hrs by PI staining based flow cytometry analysis (reference value: 36.98 %); assay type: functional
HT-29 [35] = assay: Induction of cell cycle arrest in human HT-29 cells assessed as G2 phase accumulation at 10 uM incubated for 48 hrs by PI staining based flow cytometry analysis (reference value: 11.7 %); assay type: functional
HT-29 [36] = assay: Induction of cell cycle arrest in human HT-29 cells assessed as subG1 phase accumulation at 10 uM incubated for 48 hrs by PI staining based flow cytometry analysis (reference value: 0.06 %); assay type: functional
HT-29 [37] = assay: Induction of cell cycle arrest in human HT-29 cells assessed as reduction in cyclin D1 level incubated for 48 hrs by Western blot analysis; assay type: functional, cell-based; conditions: dose 1-10 µM
HT-29 [38] = assay: Induction of cell cycle arrest in human HT-29 cells assessed as reduction in CDK4 level incubated for 48 hrs by Western blot analysis; assay type: functional, cell-based; conditions: dose 1-10 µM
HT-29 [39] = assay: Induction of ROS accumulation in human HT-29 cells at 1 to 10 uM incubated for 12 hrs by […] and DAPI staining based luminescence spectrometer; assay type: functional, cell-based; conditions: dose 1-10 µM

COc1ccc(C(=O)Oc2ccc(NC(=O)Nc3ccc(Cl)c(C(F)(F)F)c3)cc2)cc1
IC50 (HT-29 [1]): 33.8 µM | IC50 (A549): 16.1 µM

O=C(Nc1ccccc1)Nc1ccc(OC(=O)Cc2ccccc2)cc1
IC50 (HT-29 [1]): 185 µM | IC50 (A549): 153 µM

O=C(Nc1ccccc1)Nc1ccc(OC(=O)c2ccc([N+](=O)[O-])cc2)cc1
IC50 (HT-29 [1]): 185 µM | IC50 (A549): 120 µM

O=C(Cc1ccccc1)Nc1ccc(NC(=O)Nc2ccccc2)cc1
IC50 (HT-29 [1]): 3.38 µM | IC50 (A549): 0.63 µM | inhibition [2]: Dose-dependent effect | inhibition [3]: Dose-dependent effect | inhibition [4]: Dose-dependent effect | inhibition [5]: Dose-dependent effect | inhibition [6]: Dose-dependent effect | Activity (HT-29 [7]): Dose-dependent effect | Activity (HT-29 [8]): Dose-dependent effect | viability at 1 µM (HT-29 [9]): 82.4% | Activity (HT-29 [10]): 1.46% | Activity (HT-29 [11]): 1.93% | Activity (HT-29 [12]): 14.2% | viability at 5 µM (HT-29 [13]): 86.8% | Activity (HT-29 [14]): 3.09% | Activity (HT-29 [15]): 2.18% | Activity (HT-29 [16]): 7.95% | viability at 10 µM (HT-29 [17]): 85.6% | Activity (HT-29 [18]): 2.22% | Activity (HT-29 [19]): 5.46% | Activity (HT-29 [20]): 6.75% | Activity (HT-29 [21]): Dose-dependent effect | Activity (HT-29 [22]): Active | Activity (HT-29 [23]): Active | Activity (HT-29 [24]): Active | Activity (HT-29 [25]): 61.96% | Activity (HT-29 [26]): 29.67% | Activity (HT-29 [27]): 11.64% | Activity (HT-29 [28]): 0.43% | Activity (HT-29 [29]): 63.44% | Activity (HT-29 [30]): 18.48% | Activity (HT-29 [31]): 18.18% | Activity (HT-29 [32]): 7.45% | Activity (HT-29 [33]): 60.9% | Activity (HT-29 [34]): 15.84% | Activity (HT-29 [35]): 27.49% | Activity (HT-29 [36]): 3.45% | Activity (HT-29 [37]): Dose-dependent effect | Activity (HT-29 [38]): Dose-dependent effect | Activity (HT-29 [39]): Active

O=C(Nc1ccc(OC(=O)c2cc3cc([N+](=O)[O-])ccc3s2)cc1)Nc1ccc(Oc2ccccc2)cc1
IC50 (HT-29 [1]): 13.3 µM | IC50 (A549): 25.2 µM

O=C(Nc1ccccc1)Nc1ccc(OC(=O)c2ccccc2)cc1
IC50 (HT-29 [1]): 123 µM | IC50 (A549): 81.2 µM

Cc1ccc(NC(=O)Nc2ccc(OC(=O)c3ccccc3)cc2)cc1
IC50 (HT-29 [1]): 104 µM | IC50 (A549): 47.7 µM

O=C(Nc1ccc(OC(=O)c2ccccc2)cc1)Nc1ccc(Cl)c(C(F)(F)F)c1
IC50 (HT-29 [1]): 151 µM | IC50 (A549): 30.1 µM

From ChEMBL document CHEMBL4765379, “Synthesis and biological evaluation of diaryl urea derivatives designed as potential anticarcinoma agents using de novo structure-based lead optimization approach” (Eur J Med Chem, 2020)
